# Results as given in PMC8205030, “Methoxy and bromo scans on N-(5-methoxyphenyl) methoxybenzenesulphonamides reveal potent cytotoxic compounds, especially against the human breast adenocarcinoma MCF7 cell line” (Journal of Enzyme Inhibition and Medicinal Chemistry, 2021).
# Tested on: HT-29 (human colon carcinoma) cells
# Test: Cell growth assay (XTT), HT-29, alone or with verapamil
# Type: cell-based
# Conditions: Homo sapiens, HT-29; 72 h drug exposure, XTT; read-out: Antiproliferative activity IC50 HT-29
# Procedure: The presence of mycoplasma was routinely checked with MycoAlert kit (Lonza-Cambrex) and only mycoplasma-free cells were used in the experiments. Tumour cell lines were kindly provided by Dr Faustino Mollinedo from Centro de Investigaciones Biológicas Margarita Salas, Madrid, Spain. To determine cell growth, cells in exponential growth phase were seeded (100 µL/well in 96-well plates) with appropriate cell concentration (1.5 × 10^4 cells/mL for MCF7, HeLa and HEK-293 and 3 × 10^4 cells/mL for HT-29) in complete DMEM or RPMI 1640 medium (see above) at 37 °C and 5% CO2 atmosphere. After 24 h incubation, to allow cells to attach to the plates, all compounds were added at 1 µM concentration (10 µL/well in 96-well plates) and the effect on the proliferation was evaluated 72 h post-treatment. […] Nonlinear curves fitting the experimental data were carried out for each compound. […] A freshly prepared mixture solution of XTT labelling reagent with 0.02% (v/v) PMS (N-methyl-dibenzopyrazine methyl sulfate) electron coupling reagent was added to cells (50 µL/well in 96-well plates, the total volume of 160 µL/well) and were incubated during the corresponding time according to each cell line (4 h for MCF7 and HeLa and 6 h for HT-29 and HEK-293) in a humidified atmosphere (37 °C, 5% CO2). The absorbance of the formazan product generated was measured at a test wavelength of 450 nm using a multi-well plate reader (Ultra Evolution, Tecan, Männedorf, Suiza). Compounds were dissolved in DMSO and the final solvent concentrations never exceeded 0.5% (v/v). The control wells included treated cells with 0.5% (v/v) DMSO and the positive control. 10 µM verapamil was included as a control for the HT-29 cell line. Measurements were performed in triplicate, and each experiment was repeated three times.
row,IC50,Structure (SMILES)
1,> 1 µM,"COc1ccc(S(=O)(=O)N(C)c2cc(OC)cc(OC)c2)cc1 [Compound 2, N-(3,5-dimethoxyphenyl)-4-methoxy-N-methylbenzenesulphonamide]"
2,> 1 µM,"COc1ccc(S(=O)(=O)N(C)c2cc(OC)cc(OC)c2Br)cc1 [Compound 8b, N-(2-bromo-3,5-dimethoxyphenyl)-4-methoxy-N-methylbenzenesulphonamide]"
3,> 1 µM,"CCN(c1cc(OC)cc(OC)c1Br)S(=O)(=O)c1ccc(OC)cc1 [Compound 9b, N-(2-bromo-3,5-dimethoxyphenyl)-N-ethyl-4-methoxybenzenesulphonamide]"
4,> 1 µM,"COc1ccc(S(=O)(=O)Nc2ccc(OC)c(OC)c2)cc1 [Compound 11, N-(3,4-dimethoxyphenyl)-4-methoxybenzenesulphonamide]"

# Target: T1, microtubular protein isolated from calf brain (Bos taurus, UniProt P81947+Q6B856)
# T1 construct: isolated from calf brain according to the modified Shelanski method; from tissue; host or cells: calf brain
# Test: Inhibition of tubulin polymerisation (turbidity)
# Type: biochemical
# Conditions: 10 µM compound, 1.5 mg/mL microtubular protein
# Procedure: Microtubular protein was isolated from calf brain according to the modified Shelanski method[23]^,[24] by two cycles of temperature-dependent assembly/disassembly and stored at −80 °C. Before each use, protein concentration is determined by Bradford method[25] taking BSA as standard. Tubulin polymerisation was monitored using a Helios α spectrophotometer by measuring the increase in turbidity at 450 nm, caused by a shift from 4 °C to 37 °C, which allows the in vitro microtubular protein to depolymerise and to polymerise, respectively. The assay was carried out in quartz cuvettes containing 1.5 mg/mL microtubular protein and the ligand (except for control cuvette with only DMSO at the same concentration) in a mixture of 0.1 M MES buffer, 1 mM EGTA, 1 mM MgCl2, 1 mM β-ME, and 1.5 mM GTP at pH 6.7 (final volume 500 µL). Cuvettes were preincubated at 20 °C for 30 min, to allow ligand binding to tubulin, and subsequently cooled on ice for 10 min. Then, the experiment starts at 4 °C to establish the initial baseline. The assembly process was initiated by a temperature shift to 37 °C and the turbidity produced by tubulin polymerisation can be measured by an absorbance increase. After reaching a stable plateau, the temperature was switched back to 4 °C to return to the initial absorption values (to confirm the reversible nature of the monitored process and to determine whether or not the microtubular protein has stabilized). The difference in amplitude between the stable plateau and the initial baseline of the curves was taken as the degree of tubulin polymerisation for each experiment. […] All compounds were tested at 10 µM concentration. IC50 values were calculated for compounds that inhibit tubulin polymerisation more than 50% at 10 µM. […] All the measurements were carried out in at least two independent experiments using microtubular protein from different preparations.
# T1 sequence (Q6B856 whole entry): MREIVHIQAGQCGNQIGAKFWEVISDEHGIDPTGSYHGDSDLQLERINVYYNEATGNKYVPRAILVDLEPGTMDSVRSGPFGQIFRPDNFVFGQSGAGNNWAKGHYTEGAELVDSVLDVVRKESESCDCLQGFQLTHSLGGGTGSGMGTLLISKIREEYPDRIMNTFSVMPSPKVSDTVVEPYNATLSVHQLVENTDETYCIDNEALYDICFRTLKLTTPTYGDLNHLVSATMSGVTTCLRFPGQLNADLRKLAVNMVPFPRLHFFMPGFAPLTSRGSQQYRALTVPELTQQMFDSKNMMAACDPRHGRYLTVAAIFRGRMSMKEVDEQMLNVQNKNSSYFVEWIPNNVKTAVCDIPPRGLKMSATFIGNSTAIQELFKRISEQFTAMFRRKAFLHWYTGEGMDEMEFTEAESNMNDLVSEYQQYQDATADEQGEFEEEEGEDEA
# T1 sequence (P81947 whole entry): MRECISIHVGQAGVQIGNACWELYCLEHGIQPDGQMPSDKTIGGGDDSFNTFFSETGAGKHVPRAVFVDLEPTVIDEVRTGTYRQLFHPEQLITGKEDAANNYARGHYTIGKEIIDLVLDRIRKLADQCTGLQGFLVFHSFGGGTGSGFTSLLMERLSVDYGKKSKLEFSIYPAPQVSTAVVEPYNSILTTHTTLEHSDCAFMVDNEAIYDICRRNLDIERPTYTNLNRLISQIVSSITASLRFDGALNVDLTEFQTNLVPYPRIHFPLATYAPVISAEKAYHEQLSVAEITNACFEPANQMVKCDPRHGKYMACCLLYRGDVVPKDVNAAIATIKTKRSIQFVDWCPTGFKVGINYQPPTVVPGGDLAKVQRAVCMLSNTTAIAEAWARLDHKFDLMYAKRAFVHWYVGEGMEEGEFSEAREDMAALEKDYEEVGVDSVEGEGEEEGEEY
row,TPI % 10 µM,Structure (SMILES)
1,10%,"COc1ccc(S(=O)(=O)N(C)c2cc(OC)cc(OC)c2)cc1 [Compound 2, N-(3,5-dimethoxyphenyl)-4-methoxy-N-methylbenzenesulphonamide]"
2,0%,"COc1ccc(S(=O)(=O)N(C)c2cc(OC)cc(OC)c2Br)cc1 [Compound 8b, N-(2-bromo-3,5-dimethoxyphenyl)-4-methoxy-N-methylbenzenesulphonamide]"
3,0%,"CCN(c1cc(OC)cc(OC)c1Br)S(=O)(=O)c1ccc(OC)cc1 [Compound 9b, N-(2-bromo-3,5-dimethoxyphenyl)-N-ethyl-4-methoxybenzenesulphonamide]"
4,4%,"COc1ccc(S(=O)(=O)Nc2ccc(OC)c(OC)c2)cc1 [Compound 11, N-(3,4-dimethoxyphenyl)-4-methoxybenzenesulphonamide]"

# Same assay, conditions: in vitro tubulin polymerisation inhibition; read-out: TPI IC50
row,IC50,Structure (SMILES)
1,> 10 µM,"COc1ccc(S(=O)(=O)N(C)c2cc(OC)cc(OC)c2)cc1 [Compound 2, N-(3,5-dimethoxyphenyl)-4-methoxy-N-methylbenzenesulphonamide]"
2,> 10 µM,"COc1ccc(S(=O)(=O)N(C)c2cc(OC)cc(OC)c2Br)cc1 [Compound 8b, N-(2-bromo-3,5-dimethoxyphenyl)-4-methoxy-N-methylbenzenesulphonamide]"
3,> 10 µM,"CCN(c1cc(OC)cc(OC)c1Br)S(=O)(=O)c1ccc(OC)cc1 [Compound 9b, N-(2-bromo-3,5-dimethoxyphenyl)-N-ethyl-4-methoxybenzenesulphonamide]"
4,> 10 µM,"COc1ccc(S(=O)(=O)Nc2ccc(OC)c(OC)c2)cc1 [Compound 11, N-(3,4-dimethoxyphenyl)-4-methoxybenzenesulphonamide]"

# Tested on: not listed separately
# Test: Aqueous solubility (saturation shake-flask, UV)
# Type: physicochemical
# Conditions: aqueous buffer, thermodynamic from solid, pH 7.0 phosphate buffer, room temperature
# Procedure: The aqueous solubility was determined in a Helios-α UV-320 Spectrophotometer Thermo-Spectronic, Thermo Fischer Scientific, Waltham, MA, USA) using an approach based on the saturation shake-flask method. 1–2 mg of each selected compound was suspended in 300 µL pH 7.0 buffer and stirred for 48 h at room temperature. The resulting mixture was filtered through a […] filter to discard the insoluble residues. A scan between 270 and 400 nm for the tested compound was performed and three wavelengths of maximum absorbance were selected. Calibration curves were performed at these wavelengths and the concentration in the supernatant was measured by UV absorbance. The final value was given as the average of the three measurements.
row,solubility at 48 h,Structure (SMILES)
1,35 µg/mL,"COc1ccc(S(=O)(=O)N(C)c2cc(OC)cc(OC)c2)cc1 [Compound 2, N-(3,5-dimethoxyphenyl)-4-methoxy-N-methylbenzenesulphonamide]"
2,82 µg/mL,"COc1ccc(S(=O)(=O)Nc2ccc(OC)c(OC)c2)cc1 [Compound 11, N-(3,4-dimethoxyphenyl)-4-methoxybenzenesulphonamide]"

# Tested on: HeLa (human cervical carcinoma) cells
# Test: Cell growth assay (XTT), HeLa
# Type: cell-based
# Conditions: 72 h drug exposure, read-out: Antiproliferative activity IC50 HeLa
# Procedure: (§1) The presence of mycoplasma was routinely checked with MycoAlert kit (Lonza-Cambrex) and only mycoplasma-free cells were used in the experiments. Tumour cell lines were kindly provided by Dr Faustino Mollinedo from Centro de Investigaciones Biológicas Margarita Salas, Madrid, Spain. To determine cell growth, cells in exponential growth phase were seeded (100 µL/well in 96-well plates) with appropriate cell concentration (1.5 × 10^4 cells/mL for MCF7, HeLa and HEK-293 and 3 × 10^4 cells/mL for HT-29) in complete DMEM or RPMI 1640 medium (see above) at 37 °C and 5% CO2 atmosphere. After 24 h incubation, to allow cells to attach to the plates, all compounds were added at 1 µM concentration (10 µL/well in 96-well plates) and the effect on the proliferation was evaluated 72 h post-treatment. Compounds showing antiproliferative effects at tested concentration were selected for IC50 calculation (50% inhibitory concentration compared to the untreated controls) from 10^−5 to 10^−10 M concentration. Nonlinear curves fitting the experimental data were carried out for each compound. […] A freshly prepared mixture solution of XTT labelling reagent with 0.02% (v/v) PMS (N-methyl-dibenzopyrazine methyl sulfate) electron coupling reagent was added to cells (50 µL/well in 96-well plates, the total volume of 160 µL/well) and were incubated during the corresponding time according to each cell line (4 h for MCF7 and HeLa and 6 h for HT-29 and HEK-293) in a humidified atmosphere (37 °C, 5% CO2). The absorbance of the formazan product generated was measured at a test wavelength of 450 nm using a multi-well plate reader (Ultra Evolution, Tecan, Männedorf, Suiza). Compounds were dissolved in DMSO and the final solvent concentrations never exceeded 0.5% (v/v). The control wells included treated cells with 0.5% (v/v) DMSO and the positive control. 10 µM verapamil was included as a control for the HT-29 cell line. Measurements were performed in triplicate, and each experiment was repeated three times.
row,IC50,Structure (SMILES)
1,0.877 µM,"COc1ccc(S(=O)(=O)N(C)c2cc(OC)cc(OC)c2)cc1 [Compound 2, N-(3,5-dimethoxyphenyl)-4-methoxy-N-methylbenzenesulphonamide]"
2,> 1 µM,"COc1ccc(S(=O)(=O)N(C)c2cc(OC)cc(OC)c2Br)cc1 [Compound 8b, N-(2-bromo-3,5-dimethoxyphenyl)-4-methoxy-N-methylbenzenesulphonamide]"
3,> 1 µM,"CCN(c1cc(OC)cc(OC)c1Br)S(=O)(=O)c1ccc(OC)cc1 [Compound 9b, N-(2-bromo-3,5-dimethoxyphenyl)-N-ethyl-4-methoxybenzenesulphonamide]"
4,> 1 µM,"COc1ccc(S(=O)(=O)Nc2ccc(OC)c(OC)c2)cc1 [Compound 11, N-(3,4-dimethoxyphenyl)-4-methoxybenzenesulphonamide]"

# Tested on: MCF7 (human breast carcinoma) cells
# Test: Cell growth assay (XTT), MCF7
# Type: cell-based
# Conditions: Homo sapiens, MCF7; 72 h drug exposure, XTT; read-out: Antiproliferative activity IC50 MCF7
# Procedure: as §1
row,IC50,Structure (SMILES)
1,0.765 µM,"COc1ccc(S(=O)(=O)N(C)c2cc(OC)cc(OC)c2)cc1 [Compound 2, N-(3,5-dimethoxyphenyl)-4-methoxy-N-methylbenzenesulphonamide]"
2,> 1 µM,"COc1ccc(S(=O)(=O)N(C)c2cc(OC)cc(OC)c2Br)cc1 [Compound 8b, N-(2-bromo-3,5-dimethoxyphenyl)-4-methoxy-N-methylbenzenesulphonamide]"
3,> 1 µM,"CCN(c1cc(OC)cc(OC)c1Br)S(=O)(=O)c1ccc(OC)cc1 [Compound 9b, N-(2-bromo-3,5-dimethoxyphenyl)-N-ethyl-4-methoxybenzenesulphonamide]"
4,> 1 µM,"COc1ccc(S(=O)(=O)Nc2ccc(OC)c(OC)c2)cc1 [Compound 11, N-(3,4-dimethoxyphenyl)-4-methoxybenzenesulphonamide]"

# Tested on: not given
# Test: not given
# Conditions: not given
row,melting point,Structure (SMILES)
1,120 to 128 °C,"COc1ccc(S(=O)(=O)N(C)c2cc(OC)cc(OC)c2)cc1 [Compound 2, N-(3,5-dimethoxyphenyl)-4-methoxy-N-methylbenzenesulphonamide]"
2,156 to 160 °C,"COc1ccc(S(=O)(=O)N(C)c2cc(OC)cc(OC)c2Br)cc1 [Compound 8b, N-(2-bromo-3,5-dimethoxyphenyl)-4-methoxy-N-methylbenzenesulphonamide]"
3,141 to 144 °C,"CCN(c1cc(OC)cc(OC)c1Br)S(=O)(=O)c1ccc(OC)cc1 [Compound 9b, N-(2-bromo-3,5-dimethoxyphenyl)-N-ethyl-4-methoxybenzenesulphonamide]"
4,101 to 102 °C,"COc1ccc(S(=O)(=O)Nc2ccc(OC)c(OC)c2)cc1 [Compound 11, N-(3,4-dimethoxyphenyl)-4-methoxybenzenesulphonamide]"
